Reference: patent publication US12721845B2, “Therapeutic or prophylactic agent for cachexia accompanied by ghrelin resistance” (Toray Industries, Inc., priority 2021, dated 2026)
Structures can show the parent of a compound that is named as a salt.

Legend:
[1] = tested on: tumor-bearing mouse model (non-small cell lung cancer model accompanied by ghrelin resistance); assay: Example 1: food intake and body weight in tumor-bearing mouse model (A549 cells transplanted into nude mice); format: in vivo; settings: for body weight after 5-day administration / cumulative food intake in the period of administration: vs distilled water group
Method: Using tumor-bearing model animals where adenocarcinomic human alveolar basal epithelial cells, A549 cells, were transplanted into nude mice, examination was performed about drug efficacy of Compound 1 on the food intake and the body weight.
(§1) Subculture of A549 cells was performed using a 10% FBS-containing RPMI1640 culture medium. In evaluation of drug efficacy, 6-week-old female BALB/C slc/nu/nu mice (Japan SLC, Inc.) were purchased, and were used after habituated for one week. Tumor-bearing model animals were prepared as follows. Specifically, 2.5×10^7 cells of A549 cells were transplanted to the right abdominal region of each mouse by subdermal administration. On Day 43 from the cell transplantation, the mice were divided into groups to have an equal averaged tumor volume.
The effects of a variety of compounds on food intake and body weight were examined as follows. Specifically, for 5 days from Day 44 to Day 48 from the cell transplantation, the compounds were orally administered daily, and the food intake and the body weight were measured at the same time. The doses of Compound 1 were 0.25 mg/kg (6 animals), 0.5 mg/kg (6 animals), and 1 mg/kg (6 animals). To verify that the model animals are in a ghrelin resistant state, anamorelin hydrochloride (MedChemExpress) was used at 30 mg/kg (6 animals). The food intake was calculated by subtracting the weight of feed on the previous day of measurement from the weight of feed on the day of measurement.
In FIG. 1, the ordinate represents the cumulative food intake in the period of administration of the compounds (from the start of administration to the day next to the final day of administration). In FIG. 2, the ordinate represents the percentage of changes in body weight on Day 6 from the start of administration of the compounds (the day next to the final day of administration) (after 5-day administration) (relative to the body weight measured immediately before the first administration of the compound designated as 100%). In the abscissas of FIGS. 1 and 2, “Distilled water” represents distilled water-treated group, “Compound 1 0.25” represents Compound 1-treated group at 0.25 mg/kg, “Compound 1 0.5” represents Compound 1-treated group at 0.5 mg/kg, “Compound 1 1” represents Compound 1-treated group at 1 mg/kg, and “Anamorelin” represents anamorelin hydrochloride-treated group at 30 mg/kg. In FIGS. 1 and 2, the mark “*” represents a statistical significance (*: P<0.05) in comparison with distilled water-treated group (Dunnett's multiple test).

[2] = tested on: tumor-bearing mouse model (non-small cell lung cancer model accompanied by ghrelin resistance); assay: Example 2: food intake and body weight in tumor-bearing mouse model (A549 cells transplanted into nude mice); format: in vivo
Method: Using tumor-bearing model animals where adenocarcinoma human alveolar basal epithelial cells, A549 cells, were transplanted into nude mice, examination was performed about drug efficacy of Compounds 1 and 2 on the food intake and the body weight.
as §1, with “7-week old” for “6-week-old”
The effects of a variety of compounds on food intake and body weight were examined as follows. Specifically, for 5 days from Day 44 to Day 48 from the cell plantation, Compound 2 was intraperitoneally administered daily, Compound 1 and anamorelin hydrochloride were orally administered daily, and the amount of feed and the body weight were measured at the same time. Compound 2 was used at 1 mg/kg (9 animals), and Compound 1 was used at 0.25 mg/kg (9 animals), which is the lowest dose to exert drug efficacy. To verify that the model animals are in a ghrelin resistant state, anamorelin hydrochloride was used at 30 mg/kg (9 animals) herein. The food intake was calculated by subtracting the weight of feed on the previous day of measurement from the weight of feed on the day of measurement.
In FIG. 3, the ordinate represents the cumulative food intake in the period of administration of the compounds (from the start of administration to the day next to the final day of administration). In FIG. 4, the ordinate represents the percentage of changes in body weight on Day 6 from the start of administration of the compounds (the day next to the final day of administration) (after 5-day administration) (relative to the body weight measured immediately before the first administration of the compound designated as 100%). In the abscissas of FIGS. 3 and 4, “Normal saline” represents a group treated intraperitoneally with normal saline, “Compound 2” represents a group treated intraperitoneally with Compound 2 at 1 mg/kg, “Compound 1” represents a group treated orally with Compound 1 at 0.25 mg/kg, and “Aanamorelin” represents a group treated orally with anamorelin hydrochloride at 30 mg/kg. In FIGS. 3 and 4, the mark “*” represents a statistical significance (*: P<0.05) compared to the group treated with normal saline (Dunnett's multiple test).

[3] = tested on: model of non-small cell lung cancer to which A549 cells have been transplanted subcutaneously; settings: cited from earlier work
[4] = tested on: normal animal; settings: anamorelin hydrochloride 30 mg/kg; cited from earlier work
[5] = anamorelin hydrochloride 30 mg/kg oral daily for 5 days
[6] = Compound 1 0.25 mg/kg oral daily for 5 days, compared with Compound 2 1 mg/kg i.p.
[7] = Compound 2 1 mg/kg intraperitoneal daily for 5 days, vs normal saline group, Dunnett P<0.05

CN(C)N(C)C(=O)[C@@]1(Cc2ccccc2)CCCN(C(=O)[C@@H](Cc2c[nH]c3ccccc23)NC(=O)C(C)(C)N)C1 [anamorelin hydrochloride, reference compound]
body weight after 5-day administration [1, 5]: any statistically significant increasing effect in food intake or increasing effect in body weight was not observed
cumulative food intake in the period of administration [1, 5]: any statistically significant increasing effect in food intake or increasing effect in body weight was not observed
therapeutic effects on cachexia ([2]; anamorelin hydrochloride 30 mg/kg oral, administered from Day 44 after cell transplantation (Examples 1 and 2)): no therapeutic effects were observed on cachexia
body weight ([3]; anamorelin hydrochloride 30 mg/kg, A549 cells transplanted subcutaneously in the abdominal region): increase in body weight
therapeutic effects on cachexia ([3]; anamorelin hydrochloride administered on Day 23 from cell transplantation): achieved therapeutic effects on cachexia
body weight [4]: increase in body weight

CN(C(=O)/C=C/c1ccoc1)[C@@H]1CC[C@@]2(O)[C@H]3Cc4ccc(O)c5c4[C@@]2(CCN3CC2CC2)[C@H]1O5 [Compound 1, (−)-17-(cyclopropylmethyl)-3,14β-dihydroxy-4,5α-epoxy-6β-[N-methyl-trans-3-(3-furyl)acrylamide]morphinan hydrochloride]
body weight after 5-day administration ([1]; Compound 1 0.25 mg/kg oral daily for 5 days): tendency of an increase in body weight
body weight after 5-day administration ([1]; Compound 1 0.5 mg/kg oral daily for 5 days, Dunnett P<0.05): statistically significant increasing effect in body weight
body weight after 5-day administration ([1]; Compound 1 1 mg/kg oral daily for 5 days, Dunnett P<0.05): statistically significant increasing effect in body weight
cumulative food intake in the period of administration ([1]; Compound 1 0.25, 0.5 and 1 mg/kg oral daily for 5 days (Day 44-48 from transplantation), Dunnett P<0.05): statistically significant increasing effect in food intake
lowest dose to exert drug efficacy ([1]; oral, tumor-bearing mouse model): 0.25 mg/kg
body weight after 5-day administration [2, 6]: increasing effect in body weight higher than those exhibited by Compound 2
cumulative food intake in the period of administration [2, 6]: increasing effect in food intake and the increasing effect in body weight higher than those exhibited by Compound 2

CC(C)C[C@@H](NC(=O)[C@@H](Cc1ccccc1)NC(=O)[C@H](N)Cc1ccccc1)C(=O)N[C@H](CCCCN)C(=O)N1CCC(N)(C(=O)O)CC1 [Compound 2, 4-amino-1-[(2R)-6-amino-2-[(2R)-2-[(2R)-2-[(2R)-2-amino-3-phenylpropanamide]-3-phenylpropanamide]-4-methylpentanamide]hexanoyl]piperidine-4-carboxylic acid]
body weight after 5-day administration [2, 7]: statistically significant increasing effect in body weight
cumulative food intake in the period of administration [2, 7]: statistically significant increasing effect in food intake
